The values below come from US20230135524A1, “ARYL HYDANTOIN HETEROCYCLES AND METHODS OF USE” (The United States of America,as represented by the …, priority 2020, published 2023).

The subject of one experiment is LAPC4. The experiment in a line: IncuCyte % confluence cell growth inhibition, LAPC4. The settings on record: Homo sapiens, LAPC4, read-out: IC50 values (μM), LAPC4. It is filed as cell-based. How it is done: (§1) Images were then analyzed to discern the % confluence of cells in each well. IC50 values were calculated from dose response curves of the % cell growth inhibition relative to DMSO control at the same time point per each cell line.

For a further experiment, the target named is T1, Progesterone Receptor B (Homo sapiens, UniProt P06401).
T1 sequence (P06401 1-933): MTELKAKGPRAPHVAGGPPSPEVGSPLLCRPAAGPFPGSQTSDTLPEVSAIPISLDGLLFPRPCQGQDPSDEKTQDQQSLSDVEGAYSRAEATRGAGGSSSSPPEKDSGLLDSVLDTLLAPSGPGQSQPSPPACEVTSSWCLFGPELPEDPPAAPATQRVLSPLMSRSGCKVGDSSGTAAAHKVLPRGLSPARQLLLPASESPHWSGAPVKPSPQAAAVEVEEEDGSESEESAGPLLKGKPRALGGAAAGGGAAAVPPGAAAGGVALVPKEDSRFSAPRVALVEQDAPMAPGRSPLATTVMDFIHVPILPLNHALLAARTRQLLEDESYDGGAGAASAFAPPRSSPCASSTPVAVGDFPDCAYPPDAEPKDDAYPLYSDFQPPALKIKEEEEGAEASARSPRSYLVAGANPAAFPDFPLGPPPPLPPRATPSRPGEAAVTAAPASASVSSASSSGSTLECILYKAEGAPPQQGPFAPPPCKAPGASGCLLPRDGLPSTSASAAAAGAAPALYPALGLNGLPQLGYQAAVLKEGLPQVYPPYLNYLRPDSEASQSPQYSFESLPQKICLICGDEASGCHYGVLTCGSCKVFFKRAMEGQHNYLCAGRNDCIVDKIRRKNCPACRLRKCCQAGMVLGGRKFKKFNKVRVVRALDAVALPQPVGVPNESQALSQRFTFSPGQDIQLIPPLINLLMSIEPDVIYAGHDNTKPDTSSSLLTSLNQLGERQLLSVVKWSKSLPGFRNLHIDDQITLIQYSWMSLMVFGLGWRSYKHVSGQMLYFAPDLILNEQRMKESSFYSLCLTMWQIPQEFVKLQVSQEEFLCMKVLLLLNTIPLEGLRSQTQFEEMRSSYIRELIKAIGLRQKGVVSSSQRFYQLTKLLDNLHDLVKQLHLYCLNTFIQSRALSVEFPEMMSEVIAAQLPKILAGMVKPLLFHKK
The experiment in a line: Radioligand competition binding, [3H] progesterone. The note with it: competition with 0.5 nM [3H] progesterone. The procedure: (§2) Binding assays were performed via competition with radioactive ligands across a range of dose of compounds 15a and 19d. For aldosterone binding, the aldosterone receptor was incubated for 20 hours with […] aldosterone. Similarly, the androgen receptor was co-incubated with 0.5 nM of [^3H] methyltrienolone, the estrogen receptor alpha was co-incubated with 0.5 nM [^3H] estradiol, the glucocorticoid receptor with 0.5 nM [^3H] dexamethasone, and the progesterone receptor with 0.5 nM [^3H] progesterone as parent ligands.
A general note: In a radioligand displacement assay an active substance lowers the binding of a labelled ligand.

In a further experiment the target is T2, Aldosterone Receptor (UniProt P22199).
T2 sequence (P22199 1-981): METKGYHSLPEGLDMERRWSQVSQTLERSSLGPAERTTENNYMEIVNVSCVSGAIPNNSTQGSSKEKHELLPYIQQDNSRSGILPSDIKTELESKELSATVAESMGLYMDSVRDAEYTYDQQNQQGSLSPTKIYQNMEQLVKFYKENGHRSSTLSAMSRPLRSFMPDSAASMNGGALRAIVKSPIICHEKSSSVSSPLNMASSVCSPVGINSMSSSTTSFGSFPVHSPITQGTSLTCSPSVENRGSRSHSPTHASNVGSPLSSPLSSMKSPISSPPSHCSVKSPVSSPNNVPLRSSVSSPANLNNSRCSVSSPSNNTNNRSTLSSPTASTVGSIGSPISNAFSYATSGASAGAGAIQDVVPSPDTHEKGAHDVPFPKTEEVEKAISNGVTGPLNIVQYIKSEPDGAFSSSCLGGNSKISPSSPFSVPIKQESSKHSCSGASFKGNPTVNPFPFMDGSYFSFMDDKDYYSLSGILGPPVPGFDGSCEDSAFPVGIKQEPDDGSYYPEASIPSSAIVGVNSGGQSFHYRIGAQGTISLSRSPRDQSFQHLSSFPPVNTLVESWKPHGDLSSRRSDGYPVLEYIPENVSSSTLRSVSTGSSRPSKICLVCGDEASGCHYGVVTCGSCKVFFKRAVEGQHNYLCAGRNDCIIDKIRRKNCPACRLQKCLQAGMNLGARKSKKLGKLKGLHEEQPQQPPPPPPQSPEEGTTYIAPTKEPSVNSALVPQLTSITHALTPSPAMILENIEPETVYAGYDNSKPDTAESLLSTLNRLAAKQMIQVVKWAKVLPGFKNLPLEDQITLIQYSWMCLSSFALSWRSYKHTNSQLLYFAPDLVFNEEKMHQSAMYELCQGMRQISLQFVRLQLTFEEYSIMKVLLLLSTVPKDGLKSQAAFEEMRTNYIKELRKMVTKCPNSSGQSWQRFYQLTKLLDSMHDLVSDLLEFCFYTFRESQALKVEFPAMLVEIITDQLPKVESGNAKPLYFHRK
Briefly: Radioligand competition binding, [3H] aldosterone. The note with it: competition with [3H] aldosterone, 20 hours. The procedure: as §2

The next experiment concerns LNCaP ARF876L. Briefly: IncuCyte % confluence cell growth inhibition, LNCaP ARF876L. It is filed as cell-based. The note with it: Homo sapiens, AR-positive, AR mutation F876L, % cell growth inhibition relative to DMSO. How it is done: as §1
In another experiment the test system is LNCaP ARin vivo. The experiment in a line: IncuCyte % confluence cell growth inhibition, LNCaP ARin vivo. The experiment is classed as cell-based. The settings on record: Homo sapiens, read-out: IC50 values (μM), LNCaP ARin vivo. The procedure:
as §1

As a reminder, the IC50 is the concentration that gives 50% inhibition. `CC1(C)C(=O)N(c2ccc(C#N)c(C(F)(F)F)c2)C(=S)N1Cc1ccc(-c2c[nH]nn2)cc1` [Compound 15a, 4-(3-(4-(1H-1,2,3-triazol-4-yl)benzyl)-4,4-dimethyl-5-oxo-2-thioxoimidazolidin-1-yl)-2-(trifluoromethyl)benzonitrile]: the IC50 in the experiment with LAPC4 was 13.3 µM; on Progesterone Receptor B it was 103 nM; at Aldosterone Receptor, greater than 10000 nM; with LNCaP ARF876L, 21 µM; with LNCaP ARin vivo, 18.5 µM.
On to `CC1(C)C(=O)N(c2ccc(C#N)c(C(F)(F)F)c2)C(=S)N1Cc1ccc(-c2c[nH]nn2)cc1F` [Compound 19d, 4-(3-(2-Fluoro-4-(1H-1,2,3-triazol-4-yl)benzyl)-4,4-dimethyl-5-oxo-2-thioxoimidazolidin-1-yl)-2-(trifluoromethyl)benzonitrile], for which the half-inhibitory concentration (IC50) was 16.3 µM with LAPC4; 76.3 nM on Progesterone Receptor B; greater than 10000 nM at Aldosterone Receptor; 22.3 µM in the experiment on LNCaP ARF876L; 28.2 µM in the experiment with LNCaP ARin vivo.
